What follows are compounds tested against P2X7 receptor (Homo sapiens (Human), UniProt Q99572) (assay: P2X7 FLIPR assay: antagonism of BzATP response in 293 HEK cells stably expressing P2X7 receptor). Settings: FLIPR fluorescence (Fluo-4), agonist BzATP, 293 HEK cells stably transfected with P2X7 receptor.
Assay type: cell-based
Method in brief: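 Antagonist IC50 derived from FLIPR Tetra Fluo-4 calcium signal evoked by BzATP. Compound pre-incubation was 30 min at room temperature on P2X7-expressing HEK293 cells, seeded 24 h before in low-serum medium and dye-loaded 30 min at 37 °C then 30 min at RT.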

Chain of P2X7 receptor (Q99572 whole entry): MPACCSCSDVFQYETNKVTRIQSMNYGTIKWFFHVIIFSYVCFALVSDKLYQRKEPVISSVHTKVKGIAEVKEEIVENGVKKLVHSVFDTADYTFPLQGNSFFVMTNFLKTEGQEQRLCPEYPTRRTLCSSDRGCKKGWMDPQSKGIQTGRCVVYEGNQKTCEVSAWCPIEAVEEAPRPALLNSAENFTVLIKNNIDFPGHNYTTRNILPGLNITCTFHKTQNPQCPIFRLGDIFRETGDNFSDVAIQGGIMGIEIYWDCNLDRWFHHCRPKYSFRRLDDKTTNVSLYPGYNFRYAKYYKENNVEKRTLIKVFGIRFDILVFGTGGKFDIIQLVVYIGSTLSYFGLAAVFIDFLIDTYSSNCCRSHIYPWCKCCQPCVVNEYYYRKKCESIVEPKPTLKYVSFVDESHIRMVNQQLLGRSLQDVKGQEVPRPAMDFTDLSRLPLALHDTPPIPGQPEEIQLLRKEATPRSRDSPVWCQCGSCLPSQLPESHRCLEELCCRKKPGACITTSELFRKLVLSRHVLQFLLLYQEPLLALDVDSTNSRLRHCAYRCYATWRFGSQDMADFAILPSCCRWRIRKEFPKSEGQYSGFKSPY

SMILES	IC50
O=C(NCC(c1ccc(C(F)(F)F)nc1)N1CCOCC1)c1cccc(C(F)(F)F)c1Cl (single isomer, unassigned; (+)) [(+)2-chloro-N-[2-morpholino-2-[6-(trifluoromethyl)-3-pyridyl] [(+)2-Chloro-N-[2-morpholino-2-[6-(trifluoromethyl)-3-pyridyl]ethyl]-3-(trifluoromethyl)benzamide]	24 nM
O=C(NCC(c1cnc(C2CC2)nc1)N1CCC(F)(F)CC1)c1cccc(Cl)c1Cl (single isomer, unassigned; (-)) [(−)2,3-dichloro-N-[2-(2-cyclopropylpyrimidin-5-yl)-2-(4,4-di] [(−)2,3-dichloro-N-(2-(2-cyclopropylpyrimidin-5-yl)-2-(4,4-difluoropiperidin-1-yl)ethyl)benzamide]	3.5 nM
Cc1ncc(C(CNC(=O)c2cccc(Cl)c2Cl)N2CCCCC2)cn1 (single isomer, unassigned; (-)) [(−)2,3-dichloro-N-[2-(2-methylpyrimidin-5-yl)-2-(1-piperidyl] [(−)2,3-dichloro-N-(2-(2-methylpyrimidin-5-yl)-2-(piperidin-1-yl)ethyl)benzamide]	21 nM
Cc1ncc(C(CNC(=O)c2cccc(Cl)c2Cl)N2CCOCC2)cn1 (single isomer, unassigned; (-)) [(−)2,3-dichloro-N-[2-(2-methylpyrimidin-5-yl)-2-morpholino-e] [(−)2,3-Dichloro-N-[2-(2-methylpyrimidin-5-yl)-2-morpholino-ethyl]benzamide]	27 nM
Cn1cc(C(CNC(=O)c2cc(F)cc(Cl)c2Cl)N2CCC(F)(F)CC2)cn1 (single isomer, unassigned; (-)) [(−)2,3-dichloro-N-[2-(4,4-difluoro-1-piperidyl)-2-(1-methylp] [(−)2,3-dichloro-5-fluoro-N-(2-(4,4-difluoropiperidin-1-yl)-2-(1-methyl-1H-pyrazol-4-yl)ethyl)benzamide]	26 nM
CCc1ncc(C(CNC(=O)c2cccc(Cl)c2Cl)N2CCC(F)(F)CC2)cn1 (single isomer, unassigned; (-)) [(−)2,3-dichloro-N-[2-(4,4-difluoro-1-piperidyl)-2-(2-ethylpy] [(−)2,3-dichloro-N-(2-(4,4-difluoropiperidin-1-yl)-2-(2-ethylpyrimidin-5-yl)ethyl)benzamide]	4.9 nM
O=C(NCC(c1cnc(C(F)(F)F)nc1)N1CCC(F)(F)CC1)c1cc(F)cc(Cl)c1Cl (single isomer, unassigned; (-)) [(−)2,3-dichloro-N-[2-(4,4-difluoro-1-piperidyl)-2-[2-(triflu] [(−)2,3-dichloro-5-fluoro-N-(2-(4,4-difluoropiperidin-1-yl)-2-(2-(trifluoromethyl)pyrimidin-5-yl)ethyl)benzamide]	2.2 nM
O=C(NCC(c1ccc(C(F)F)nc1)N1CCC(F)(F)CC1)c1cccc(Cl)c1Cl (single isomer, unassigned; (-)) [(−)2,3-dichloro-N-[2-[6-(difluoromethyl)-3-pyridyl]-2-(4,4-d] [(−)2,3-dichloro-N-(2-(2-(difluoromethyl)pyridin-5-yl)-2-(4,4-difluoropiperidin-1-yl)ethyl)benzamide]	4.2 nM
O=C(NCC(c1cnc(C(F)(F)F)nc1)N1CCOCC1)c1cccc(Cl)c1Cl (single isomer, unassigned; (-)) [(−)2,3-dichloro-N-[2-morpholino-2-[2-(trifluoromethyl)pyrimi] [(−)2,3-Dichloro-N-[2-morpholino-2-[2-(trifluoromethyl)pyrimidin-5-yl]ethyl]benzamide]	3.2 nM
O=C(NCC(c1ccc(C(F)(F)F)nc1)N1CCOCC1)c1cccc(Cl)c1Cl (single isomer, unassigned; (-)) [(−)2,3-dichloro-N-[2-morpholino-2-[6-(trifluoromethyl)-3-pyr] [(−)2,3-Dichloro-N-[2-morpholino-2-[6-(trifluoromethyl)-3-pyridyl]ethyl]benzamide]	2 nM

More lines, in order of falling IC50, values ahead:

IC50	SMILES
98 nM	COc1ccccc1C(=O)NCC(c1ccc(C(F)(F)F)nc1)N1CCOCC1 (single isomer, unassigned; (+)) [(+)-2-methoxy-N-(2-morpholino-2-(6-(trifluoromethyl)pyridin-] [(+)2-1\4ethoxy-N-[2-morpholin-4-yl-2-(6-trifluoromethyl-pyridin-3-yl)-ethyl]-benzamide]
25 nM	Cn1cc(C(CNC(=O)c2cccc(Cl)c2Cl)N2CCC(F)(F)CC2)cn1 (single isomer, unassigned; (-)) [(−)2,3-dichloro-N-[2-(4,4-difluoro-1-piperidyl)-2-(1-methylp] [(−)2,3-dichloro-N-(2-(4,4-difluoropiperidin-1-yl)-2-(1-methyl-1H-pyrazol-4-yl)ethyl)benzamide]
14 nM	Cc1ncc(C(CNC(=O)c2cc(F)cc(Cl)c2Cl)N2CCC(F)(F)CC2)cn1 (single isomer, unassigned; (-)) [(−)2,3-dichloro-N-[2-(4,4-difluoro-1-piperidyl)-2-(2-methylp] [(−)2,3-dichloro-5-fluoro-N-(2-(4,4-difluoropiperidin-1-yl)-2-(2-methylpyrimidin-5-yl)ethyl)benzamide]
14 nM	Cc1ncc(C(CNC(=O)c2cccc(Cl)c2Cl)N2CCC(F)CC2)cn1 (single isomer, unassigned; (-)) [(−)2,3-dichloro-N-[2-(4-fluoro-1-piperidyl)-2-(2-methylpyrim] [(−)2,3-dichloro-N-(2-(4-fluoropiperidin-1-yl)-2-(2-methylpyrimidin-5-yl)ethyl)benzamide]
9.6 nM	O=C(NCC(c1cnc(C(F)F)nc1)N1CCOCC1)c1cccc(Cl)c1Cl (single isomer, unassigned; (-)) [(−)2,3-dichloro-N-[2-[2-(difluoromethyl)pyrimidin-5-yl]-2-mo] [(−)2,3-dichloro-N-(2-(2-(difluoromethyl)pyrimidin-5-yl)-2-morpholinoethyl)benzamide]
6.5 nM	O=C(NCC(c1cnc(C(F)(F)F)nc1)N1CCC(F)(F)CC1)c1c(F)cc(Cl)cc1Cl (single isomer, unassigned; (-)) [(−)2,4-dichloro-N-[2-(4,4-difluoro-1-piperidyl)-2-[2-(triflu] [(−)2,4-dichloro-6-fluoro-N-(2-(4,4-difluoropiperidin-1-yl)-2-(2-(trifluoromethyl)pyrimidin-5-yl)ethyl)benzamide]
6.4 nM	O=C(NCC(c1cnc(C(F)(F)F)nc1)N1CCC(F)(F)CC1)c1ccc(Cl)cc1Cl (single isomer, unassigned; (-)) [(−)2,4-dichloro-N-[2-(4,4-difluoro-1-piperidyl)-2-[2-(triflu] [(−)2,4-dichloro-N-(2-(4,4-difluoropiperidin-1-yl)-2-(2-(trifluoromethyl)pyrimidin-5-yl)ethyl)benzamide]
5.8 nM	Cc1ncc(C(CNC(=O)c2cccc(Cl)c2Cl)N2CCC(F)(F)CC2)cn1 (single isomer, unassigned; (-)) [(−)2,3-dichloro-N-[2-(4,4-difluoro-1-piperidyl)-2-(2-methylp] [(−)2,3-dichloro-N-(2-(4,4-difluoropiperidin-1-yl)-2-(2-methylpyrimidin-5-yl)ethyl)benzamide]
4.7 nM	O=C(NCC(c1cnc(C(F)(F)F)nc1)N1CCC(F)CC1)c1cccc(Cl)c1Cl (single isomer, unassigned; (-)) [(−)2,3-dichloro-N-[2-(4-fluoro-1-piperidyl)-2-[2-(trifluorom] [(−)2,3-dichloro-N-(2-(4-fluoropiperidin-1-yl)-2-(2-(trifluoromethyl)pyrimidin-5-yl)ethyl)benzamide]

From patent US9415055B2, “Cyclic amines” (H. Lundbeck A/S, priority 2012, dated 2016)
